Reference: patent publication US10603345B2, “Pharmaceutical composition for treating respiratory disease” (Kunming Institute of Botany, The Chinese Academy of Sciences, priority 2015, dated 2020)

What was measured:
Assay type in all cases: in vivo
[1] = tested on: KL-6 in serum of pulmonary fibrosis model mouse; test: Effect on KL-6 in serum of pulmonary fibrosis model mouse; settings: ELISA, bleomycin pulmonary fibrosis mouse, ig 28 d, dose/kg: prednisone acetate 5 mg, Test group 1 50, 2 25, 3 12.5, picrinine 5.0, vallesamine 3.0, scholaricine 3.5, 19-epi-scholaricine 1.0 mg, x ± SD
Protocol: (§1) Animal source: 30˜35 g male ICR mouse, from laboratory animal department of Kunming Medical University, License No. SCXK (Dian) 2011-0004.
(§2) Method and route: bleomycin was used to induce mouse pulmonary fibrosis, and after intragastrical administration for 28 d at a dose of 20 mL/kg, the animal was sacrificed at the 29th day.
(§3) Group and dose: Sham group, Model group, Positive control group, prednisone acetate (5 mg/kg) group, Test group 1: picrinine, vallesamine, scholaricine and 19-epischolaricine prepared in Example 1.7 were mixed at different ratios by weight (50 mg/kg), Test group 2: the alkaloid composition (25 mg/kg) prepared in Example 1.5, Test group 3: the alkaloid composition (12.5 mg/kg) prepared in Example 1.6, Picrinine group (5.0 mg/kg), Vallesamine group (3.0 mg/kg), Scholaricine group (3.5 mg/kg), and 19-epischolaricine group (1.0 mg/kg).
(§4) Positive control drug: prednisone acetate tablet, Approval number: H33021207, 5 mg/tablet, produced by Zhejiang Xianju Pharmaceutical Co., Ltd., Batch No. 140146.
(§5) Sample preparation: all the samples were prepared by using 0.5% carboxymethylcellulose sodium (0.5% CMC-Na).
Group and dose: in Test group 1, the ratio of picrinine, vallesamine, scholaricine and 19-epischolaricine by weight was 45:38:30:8, and the other groups and doses thereof were as described in Example 12.
Test index: KL-6 in serum was used as index, and was determined by enzyme linked immunosorbent assay.

[2] = tested on: Col-1 in homogenate of pulmonary fibrosis model mouse; test: Effect on Col-1 in homogenate of pulmonary fibrosis model mouse; settings: ELISA, bleomycin pulmonary fibrosis mouse, ig 28 d, dose/kg: prednisone acetate 5 mg, Test group 1 50, 2 25, 3 12.5, picrinine 5.0, vallesamine 3.0, scholaricine 3.5, 19-epi-scholaricine 1.0 mg, x ± SD
Protocol: as §1, §2, §3, §4, §5
Group and dose: in Test group 1, the ratio of picrinine, vallesamine, scholaricine and 19-epischolaricine by weight was 20:17:17:4, and the other groups and doses thereof were as described in Example 12.
Test index: Col-1 in homogenate was used as index, and was determined by enzyme linked immunosorbent assay.

[3] = tested on: MDA in serum and homogenate of pulmonary fibrosis model mouse; test: Effect on MDA in serum and homogenate of pulmonary fibrosis model mouse; settings: bleomycin pulmonary fibrosis mouse, ig 28 d, dose/kg: prednisone acetate 5 mg, Test group 1 50, 2 25, 3 12.5, picrinine 5.0, vallesamine 3.0, scholaricine 3.5, 19-epi-scholaricine 1.0 mg, x ± SD
Protocol: as §1, §2, §3, §4, §5
Group and dose: in Test group 1, the ratio of picrinine, vallesamine, scholaricine and 19-epischolaricine by weight was 8:5:5:1, and the other groups and doses thereof were as described in Example 12.
Test index: MDA in serum and homogenate was used as index, and was determined by thiobabituric acid method.

[4] = tested on: Hyp in homogenate of pulmonary fibrosis model mouse; test: Effect on Hyp in homogenate of pulmonary fibrosis model mouse; settings: bleomycin pulmonary fibrosis mouse, ig 28 d, dose/kg: prednisone acetate 5 mg, Test group 1 50, 2 25, 3 12.5, picrinine 5.0, vallesamine 3.0, scholaricine 3.5, 19-epi-scholaricine 1.0 mg, x ± SD
Protocol: as §1, §2, §3, §4
(§6) Sample preparation: all the samples were prepared by using 0.5% carboxymethylcellulose sodium (0.5% CMC-Na). […]
Test index: Hyp in homogenate was used as index, and was determined by enzyme linked immunosorbent assay.

[5] = tested on: LDH in serum of pulmonary fibrosis model mouse; test: Effect on LDH in serum of pulmonary fibrosis model mouse; settings: bleomycin pulmonary fibrosis mouse, ig 28 d, dose/kg: prednisone acetate 5 mg, Test group 1 50, 2 25, 3 12.5, picrinine 5.0, vallesamine 3.0, scholaricine 3.5, 19-epi-scholaricine 1.0 mg, x ± SD
Protocol: as §1, §2, §3, §4, §6
Test index: LDH in serum was used as index, and was determined by 2, 4-dinitrophenylhydrazine method.

[6] = tested on: SOD in serum and homogenate of pulmonary fibrosis model mouse; test: Effect on SOD in serum and homogenate of pulmonary fibrosis model mouse; settings: bleomycin pulmonary fibrosis mouse, ig 28 d, dose/kg: prednisone acetate 5 mg, Test group 1 50, 2 25, 3 12.5, picrinine 5.0, vallesamine 3.0, scholaricine 3.5, 19-epi-scholaricine 1.0 mg, x ± SD
Protocol: as §1, §2, §3, §4, §5
Group and dose: in Test group 1, the ratio of picrinine, vallesamine, scholaricine and 19-epischolaricine by weight was 10:7:7:2, and the other groups and doses thereof were as described in Example 12.
Test index: SOD in serum and homogenate was used as index, and was determined by xanthine oxidase method.

CC(=O)OCC(=O)[C@@]1(O)CC[C@H]2[C@@H]3CCC4=CC(=O)C=C[C@]4(C)[C@H]3C(=O)C[C@@]21C [prednisone acetate, reference compound]
KL-6 [1]: 3.00 ± 1.00 U/mg prot | Col-1 [2]: 6.0 ± 2.1 μg/g prot | MDA Homogenate ([3]; homogenate): 19.0 ± 6.6 nmol/mg prot | MDA Serum ([3]; serum): 0.55 ± 0.17 nmol/mg prot | Hyp [4]: 2.9 ± 0.8 μg/g prot | LDH [5]: 10.5 ± 3.4 U/g prot | SOD homogenate ([6]; homogenate): 60.0 ± 15.9 U/mg prot | SOD Serum ([6]; serum): 15.5 ± 3.8 U/mg prot
